Read-outs that look alike come from different tables or passages of the source.
Experiments:
[1] = biological target: T1, CA IX (Homo sapiens, UniProt Q16790); assay: biochemical; details: for Ki: read-out: pKi (exp.) (converted)
[2] = biological target: T1, CA IX; details: read-out: Ki, cited from earlier work
[3] = experimental value used for the QSPR model, library compounds (IDs A…, B…), equals log10 of Ki in nM
[4] = observed Ki of library compounds (IDs A…, B…), ref ChEMBL and BindingDB
[5] = experimental value from the library Ki (IDs A…, B…), values equal log10 of Ki in nM
[6] = library compounds with IDs A… and B…, from observed Ki (nM)

| SMILES | log10 of Ki in nM [1, 3] | log10 of Ki in nM [1, 5] | further results |
| --- | --- | --- | --- |
| Cc1ccc2c(c1)/C(=N/c1ccc(NC(=O)Nc3ccc(S(N)(=O)=O)cc3)cc1)C(=O)N2 [B0270] |  |  | Ki [1, 3]: 17 nM; Ki [2, 4]: 17 nM |
| NOS(=O)(=O)N[C@H]1C=C[C@H](O)[C@@H](CO)O1 [A1502] |  |  | Ki [1, 5]: 84.9 nM; Ki [2, 4]: 85 nM |
| C[C@H](NC(=O)Nc1ccc(NS(N)(=O)=O)cc1)c1cccc2ccccc12 [B0045] |  |  | Ki [1, 6]: 3.4 nM; Ki ([2]; library compounds with IDs A… and B…, observed Ki, ref ChEMBL, BindingDB): 3.4 nM |
| NS(=O)(=O)c1ccc(-n2c(S)nc3cc(F)ccc3c2=O)cc1 [A0315] | 0.708 |  |  |
| Cc1ccc(-c2cnc(C3CC3)o2)cc1S(N)(=O)=O [B0710] |  |  | log10 of Ki in nM [1, 6]: 2.502 |
| CCCN(CCC)S(=O)(=O)c1ccc(C(=O)N[C@@H](CS)C(=O)O)cc1 [A1793] |  | 2.305 |  |
| Cc1ccc(NC(=S)NNC(=O)c2ccccc2O)cc1 [A2191] | 3.095 |  |  |
| O=C1c2ccccc2S(=O)(=O)N1Cc1cccc([N+](=O)[O-])c1 [A0700] |  | 1.041 |  |
| Cc1ccc2c(c1)/C(=N\c1ccc(C(=O)Nc3ccc(S(N)(=O)=O)cc3)cc1)C(=O)N2 [B0670] | 2.303 |  |  |
| COc1ccc(-c2cnc(C3CCC3)o2)cc1S(N)(=O)=O [B0034] |  | 0.491 |  |
| CC(=O)OC[C@H]1O[C@@H]([S+]([O-])Cc2cn(-c3ccc(S(N)(=O)=O)cc3)nn2)[C@H](OC(C)=O)[C@@H](OC(C)=O)[C@H]1OC(C)=O (some centres unmarked) [B0152] |  |  | log10 of Ki in nM [1]: 0.886 |
| NS(=O)(=O)c1ccc(NC(=O)N2CCN(CCO)CC2)cc1 [A1995] |  | 2.639 |  |
| Cc1cc(C)cc(NC(=O)Nc2ccc3c(C)cc(=O)oc3c2)c1 [A2046] |  |  | log10 of Ki in nM [1, 6]: 2.785 |
| CC(=O)N1C(=O)/C(=N\n2cnc3c(c(-c4ccc(Br)cc4)cn3-c3ccc(S(N)(=O)=O)cc3)c2=N)c2ccccc21 [B0037] | 0.491 |  |  |
| NS(=O)(=O)c1ccc(NC(=O)c2ccc(/N=C3\C(=O)Nc4ccc([N+](=O)[O-])cc43)cc2)cc1 [A1847] |  | 2.375 |  |
| Cc1nnnn1-c1ccc2c(c1)C=CS(=O)(=O)O2 [A1375] |  |  | log10 of Ki in nM [1, 6]: 1.819 |
| CCOC(=O)NC(=S)N(CC(=O)c1ccccc1)c1ccc(S(N)(=O)=O)cc1 [A0977] |  | 1.398 |  |
| CCCN(CCC)S(=O)(=O)c1ccc(C(=O)Nc2ccccc2[N+](=O)[O-])cc1 [A1771] |  | 2.283 |  |
| CC(C)(C)OC(=O)NCCCCOc1ccc(S(N)(=O)=O)cc1 [A0486] | 0.886 |  |  |

| SMILES | log10 of Ki in nM [1, 3] | log10 of Ki in nM [1, 5] | further results |
| --- | --- | --- | --- |
| NS(=O)(=O)c1ccc(Nc2nc(Nc3ccccc3)nc(N3CCOCC3)n2)cc1 [A0867] | 1.303 |  |  |
| NS(=O)(=O)c1ccc(-c2cnc(C3CCC3)o2)cc1 [B0121] |  | 0.813 |  |
| CCCCC(=O)OC[C@H]1O[C@@H](n2cc(-c3ccc(S(N)(=O)=O)cc3)nn2)[C@H](OC(=O)CCCC)[C@@H](OC(=O)CCCC)[C@@H]1OC(=O)CCCC [A2148] | 2.978 |  |  |
| CCCC(=O)OC[C@H]1O[C@@H](n2cc(-c3ccc(S(N)(=O)=O)cc3)nn2)[C@H](OC(=O)CCC)[C@@H](OC(=O)CCC)[C@H]1OC(=O)CCC [A1285] | 1.714 |  |  |
| NS(=O)(=O)OC1CCN(S(=O)(=O)[C@@H]2O[C@H](CO)[C@@H](O)[C@H](O)[C@H]2O)CC1 [A0701] |  |  | log10 of Ki in nM [1, 6]: 1.041 |
| CN(C)c1ccc(/N=N/c2ccc(S(N)(=O)=O)cc2)cc1 [A0408] |  | 0.820 |  |
| NS(=O)(=O)c1cnccc1-n1ccc(=O)cc1 [A0836] |  | 1.262 |  |
| Cc1c(C(=O)NCCN(C)C)cc(-c2ccc(-c3ccccc3)cc2)n1-c1ccc(S(N)(=O)=O)cc1 [A1493] | 1.919 |  |  |
| CCCCC(=O)OC[C@H]1O[C@@H](n2cc(-c3ccc(S(N)(=O)=O)cc3)nn2)[C@H](OC(=O)CCCC)[C@@H](OC(=O)CCCC)[C@H]1OC(=O)CCCC [A1944] |  | 2.525 |  |
| NS(=O)(=O)c1ccc(-c2cnc(C3CCC3)o2)s1 [B0649] |  | 2.193 |  |
| CC(=O)OC[C@H]1O[C@@H](SCc2nnn(-c3ccc(S(N)(=O)=O)cc3)c2C#CCO)[C@H](OC(C)=O)[C@@H](OC(C)=O)[C@@H]1OC(C)=O [A1422] | 1.857 |  |  |
| Cc1ccc(-c2cnc(C3CC3)o2)cc1S(N)(=O)=O [A1938] |  |  | log10 of Ki in nM [1, 6]: 2.502 |
| Oc1ccccc1/C=N/CCCC/N=C/c1ccccc1O [A2462] | 4.021 |  |  |
| CC1(C)CC(=O)C2=C(C1)N(c1ccc(S(N)(=O)=O)cc1)C1=C(C(=O)CC(C)(C)C1)C2c1cccc([N+](=O)[O-])c1 [A1986] |  |  | log10 of Ki in nM [1, 6]: 2.623 |
| C=CCOc1cc(=S)oc2ccccc12 [A2239] |  |  | log10 of Ki in nM [1, 6]: 3.483 |
| NS(=O)(=O)c1cc(-c2cnc(C(=O)N3CCOCC3)o2)cs1 [B0343] | 1.447 |  |  |
| O=S1(=O)C=Cc2cc(-n3cc(C4CC4)nn3)ccc2O1 [A1333] | 1.782 |  |  |
| NS(=O)(=O)c1ccc2nc(-n3cc(C=O)c(-c4ccc(F)cc4)n3)sc2c1 [A2181] | 3.009 |  |  |
| NS(=O)(=O)c1ccc(CNC(=O)Cc2ccc(F)cc2)cc1 [A0160] |  | 0.491 |  |

Source: article PMC6151961 (Journal of Enzyme Inhibition and Medicinal Chemistry, 2018)
